pIC50: −log10 of the molar value. Activity calls are given as the source filed them. No cut-off for these calls is given here.
Assays:
GIST430 [1] = assay: Antiproliferative activity against human GIST430 cells harboring c-KIT exon 11 primary in-frame V560-L576 deletion mutant and exon 13 heterozygous secondary missense V654A mutant assessed as reduction in cell viability by MTS assay; format: functional
GIST882 [2] = assay: Antiproliferative activity against human GIST882 cells harboring c-KIT exon 13 homozygous primary K642E mutant assessed as reduction in cell viability by MTS assay; format: functional
A549 = assay: Antiproliferative activity against human A549 assessed as reduction in cell viability after 72 hrs by MTS assay; format: functional; conditions: A549, 72 h
[3] = molecular target: Mast/stem cell growth factor receptor Kit (Homo sapiens, UniProt P10721, D816H); assay: Inhibition of human c-KIT A loop exon 17 D816H single mutant using poly (Glu,Tyr) 4:1 as substrate in presence of 33P-gamma-ATP by hotspot kinase assay
Sequence of Mast/stem cell growth factor receptor Kit (Homo sapiens, UniProt P10721, D816H) (P10721 26-976 D816H limits assumed): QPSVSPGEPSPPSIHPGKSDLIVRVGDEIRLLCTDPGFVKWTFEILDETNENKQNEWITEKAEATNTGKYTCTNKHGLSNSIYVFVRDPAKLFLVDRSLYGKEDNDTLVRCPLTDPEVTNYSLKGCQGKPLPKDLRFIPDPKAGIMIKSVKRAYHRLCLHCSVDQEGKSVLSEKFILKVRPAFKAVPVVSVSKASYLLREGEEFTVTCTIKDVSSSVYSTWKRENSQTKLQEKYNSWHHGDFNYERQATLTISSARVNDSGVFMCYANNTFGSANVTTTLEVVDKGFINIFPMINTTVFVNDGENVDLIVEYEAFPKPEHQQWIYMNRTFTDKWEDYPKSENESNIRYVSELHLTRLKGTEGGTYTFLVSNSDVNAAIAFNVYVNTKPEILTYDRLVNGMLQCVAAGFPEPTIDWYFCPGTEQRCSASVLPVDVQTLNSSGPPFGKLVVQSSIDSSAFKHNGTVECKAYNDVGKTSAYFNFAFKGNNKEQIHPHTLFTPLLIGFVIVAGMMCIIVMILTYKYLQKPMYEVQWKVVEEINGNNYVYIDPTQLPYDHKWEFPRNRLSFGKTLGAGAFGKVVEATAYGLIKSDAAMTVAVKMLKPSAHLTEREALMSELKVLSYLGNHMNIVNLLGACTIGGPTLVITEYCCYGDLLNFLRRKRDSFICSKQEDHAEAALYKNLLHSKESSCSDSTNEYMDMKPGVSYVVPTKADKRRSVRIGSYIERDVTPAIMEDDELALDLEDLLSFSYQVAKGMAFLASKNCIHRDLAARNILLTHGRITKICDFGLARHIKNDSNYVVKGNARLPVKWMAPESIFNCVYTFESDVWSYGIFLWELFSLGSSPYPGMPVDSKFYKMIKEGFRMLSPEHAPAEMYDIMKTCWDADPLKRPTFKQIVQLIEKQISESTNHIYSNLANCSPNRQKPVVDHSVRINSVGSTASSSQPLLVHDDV

GIST48 = assay: Antiproliferative activity against human GIST48 cells harboring c-KIT exon 11 homozygous primary missense V560D mutant and exon 17 heterozygous secondary D820A mutant assessed as reduction in cell viability by methylene blue staining based assay; format: functional
[4] = system: Mast/stem cell growth factor receptor Kit (Homo sapiens), P10721 [UNDEFINED MUTATION]; assay: Inhibition of c-KIT V560-L576 deletion/V654A double mutant phosphorylation in human GIST430 cells assessed as decrease in phosphorylation of MEK at 10 to 100 nM measured after 24 to 72 hrs by Western blot analysis; format: cell-based
Sequence of Mast/stem cell growth factor receptor Kit (Homo sapiens), P10721 [UNDEFINED MUTATION] (P10721 whole entry, looked up, stated change not applied): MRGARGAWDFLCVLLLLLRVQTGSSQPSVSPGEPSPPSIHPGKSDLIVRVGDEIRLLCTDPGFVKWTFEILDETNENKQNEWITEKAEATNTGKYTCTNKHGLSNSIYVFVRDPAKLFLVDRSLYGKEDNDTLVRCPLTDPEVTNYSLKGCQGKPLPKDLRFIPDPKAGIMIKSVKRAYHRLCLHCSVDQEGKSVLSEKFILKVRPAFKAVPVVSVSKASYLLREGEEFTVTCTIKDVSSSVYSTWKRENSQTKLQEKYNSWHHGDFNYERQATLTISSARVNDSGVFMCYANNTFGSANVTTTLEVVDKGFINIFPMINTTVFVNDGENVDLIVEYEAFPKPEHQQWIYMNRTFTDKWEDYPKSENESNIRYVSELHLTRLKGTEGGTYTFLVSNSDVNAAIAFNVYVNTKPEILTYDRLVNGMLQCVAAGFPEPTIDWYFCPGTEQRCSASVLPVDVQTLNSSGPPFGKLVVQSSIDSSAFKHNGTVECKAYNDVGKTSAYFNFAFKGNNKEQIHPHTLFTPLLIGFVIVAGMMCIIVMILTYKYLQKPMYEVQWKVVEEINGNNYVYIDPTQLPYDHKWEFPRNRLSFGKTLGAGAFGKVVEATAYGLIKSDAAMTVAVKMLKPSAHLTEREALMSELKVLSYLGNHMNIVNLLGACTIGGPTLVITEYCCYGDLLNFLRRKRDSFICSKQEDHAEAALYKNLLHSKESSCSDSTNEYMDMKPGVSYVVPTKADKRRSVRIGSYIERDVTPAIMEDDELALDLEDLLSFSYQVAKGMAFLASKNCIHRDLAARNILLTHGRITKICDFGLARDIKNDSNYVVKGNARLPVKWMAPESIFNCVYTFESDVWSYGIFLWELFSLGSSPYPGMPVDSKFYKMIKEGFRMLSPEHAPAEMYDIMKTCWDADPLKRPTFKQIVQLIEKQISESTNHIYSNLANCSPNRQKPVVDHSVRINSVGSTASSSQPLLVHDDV

[5] = system: Mast/stem cell growth factor receptor Kit (Homo sapiens), P10721 [UNDEFINED MUTATION]; assay: Inhibition of c-KIT V560-L576 deletion/V654A double mutant phosphorylation in human GIST430 cells at 10 to 100 nM measured after 24 to 72 hrs by Western blot analysis; format: cell-based
[6] = system: Mast/stem cell growth factor receptor Kit (Homo sapiens), P10721 [Y823D]; conditions: at 100 nM
Sequence of Mast/stem cell growth factor receptor Kit (Homo sapiens), P10721 [Y823D] (P10721 whole entry Y823D, the tested form may be a part): as the sequence (P10721 whole entry, looked up, stated change not applied) above, with Y823D counted along it
Description: Inhibition of human c-KIT A loop exon 17 Y823D single mutant at 100 nM using poly (Glu,Tyr) 4:1 as substrate in presence of 33P-gamma-ATP by hotspot kinase assay relative to control

[7] = system: Mast/stem cell growth factor receptor Kit (Homo sapiens), P10721 [T670I]; assay: Inhibition of human c-KIT ATP binding domain exon 14 T670I single mutant at 100 nM using poly (Glu,Tyr) 4:1 as substrate in presence of 33P-gamma-ATP by hotspot kinase assay relative to control
Sequence of Mast/stem cell growth factor receptor Kit (Homo sapiens), P10721 [T670I] (P10721 whole entry T670I, the tested form may be a part): as the sequence (P10721 whole entry, looked up, stated change not applied) above, with T670I counted along it

[8] = molecular target: Mast/stem cell growth factor receptor Kit (Homo sapiens, UniProt P10721, K642E); assay: Inhibition of human c-KIT ATP binding domain exon 13 K642E single mutant using poly (Glu,Tyr) 4:1 as substrate in presence of 33P-gamma-ATP by hotspot kinase assay
Sequence of Mast/stem cell growth factor receptor Kit (Homo sapiens, UniProt P10721, K642E) (P10721 26-976 K642E limits assumed): as the sequence (P10721 26-976 D816H limits assumed) above, with K617E, H791D counted along it

[9] = molecular target: Mast/stem cell growth factor receptor Kit (Homo sapiens, UniProt P10721, A829P); assay: Inhibition of human c-KIT A loop exon 18 A829P single mutant using poly (Glu,Tyr) 4:1 as substrate in presence of 33P-gamma-ATP by hotspot kinase assay
Sequence of Mast/stem cell growth factor receptor Kit (Homo sapiens, UniProt P10721, A829P) (P10721 26-976 A829P limits assumed): as the sequence (P10721 26-976 D816H limits assumed) above, with H791D, A804P counted along it

[10] = system: Mast/stem cell growth factor receptor Kit (Homo sapiens), P10721 [K642E]; assay: Inhibition of human c-KIT ATP binding domain exon 13 K642E single mutant at 100 nM using poly (Glu,Tyr) 4:1 as substrate in presence of 33P-gamma-ATP by hotspot kinase assay relative to control
Sequence of Mast/stem cell growth factor receptor Kit (Homo sapiens), P10721 [K642E] (P10721 whole entry K642E, the tested form may be a part): as the sequence (P10721 whole entry, looked up, stated change not applied) above, with K642E counted along it

[11] = Antiproliferative activity against human Detroit 551 assessed as reduction in cell viability after 72 hrs by MTS assay; format: cell-based; conditions: Detroit 551 cells
[12] = system: Mast/stem cell growth factor receptor Kit (Homo sapiens), P10721 [V560G,N822K]; assay: Inhibition of human c-KIT A loop exon 11/17 V560G/N822K double mutant at 100 nM using poly (Glu,Tyr) 4:1 as substrate in presence of 33P-gamma-ATP by hotspot kinase assay relative to control
Sequence of Mast/stem cell growth factor receptor Kit (Homo sapiens), P10721 [V560G,N822K] (P10721 whole entry V560G/N822K): as the sequence (P10721 whole entry, looked up, stated change not applied) above, with V560G, N822K counted along it

GIST882 [13] = assay: Antiproliferative activity against human GIST882 cells harboring c-KIT exon 13 homozygous primary K642E mutant assessed as reduction in cell viability by methylene blue staining based assay; format: functional
[14] = system: Mast/stem cell growth factor receptor Kit (Homo sapiens), P10721 [V560G,D816V]; assay: Inhibition of human c-KIT A loop exon 11/17 V560G/D816V double mutant at 10 nM using poly (Glu,Tyr) 4:1 as substrate in presence of 33P-gamma-ATP by hotspot kinase assay relative to control
Sequence of Mast/stem cell growth factor receptor Kit (Homo sapiens), P10721 [V560G,D816V] (P10721 whole entry V560G/D816V): as the sequence (P10721 whole entry, looked up, stated change not applied) above, with V560G, D816V counted along it

GIST430 [15] = assay: Antitumor activity against human GIST430 cells harboring c-KIT exon 11 primary in-frame V560-L576 deletion mutant and exon 13 heterozygous secondary missense V654A mutant xenografted in NOD-SCID mouse assessed as tumor growth inhibition at 25 mg/kg, po administered for 2 weeks with 2 days rest after day 5 and measured thrice per week up to 21 days during compound dosing; format: functional, organism-based
[16] = system: Mast/stem cell growth factor receptor Kit (Homo sapiens), P10721 [D816V]; conditions: at 100 nM
Sequence of Mast/stem cell growth factor receptor Kit (Homo sapiens), P10721 [D816V] (P10721 whole entry D816V): as the sequence (P10721 whole entry, looked up, stated change not applied) above, with D816V counted along it
Description: Inhibition of human c-KIT A loop exon 17 D816V single mutant at 100 nM using poly (Glu,Tyr) 4:1 as substrate in presence of 33P-gamma-ATP by hotspot kinase assay relative to control

Mus musculus = assay: Decrease in c-KIT phosphorylation in po dosed NOD-SCID mouse xenografted with human GIST430 cells harboring c-KIT exon 11 primary in-frame V560-L576 deletion mutant and exon 13 heterozygous secondary missense V654A mutant measured after 8 hrs by immunoblotting method; format: functional, organism-based
[17] = system: Mast/stem cell growth factor receptor Kit (Homo sapiens), P10721 [A829P]; assay: Inhibition of human c-KIT A loop exon 18 A829P single mutant at 10 nM using poly (Glu,Tyr) 4:1 as substrate in presence of 33P-gamma-ATP by hotspot kinase assay relative to control
Sequence of Mast/stem cell growth factor receptor Kit (Homo sapiens), P10721 [A829P] (P10721 whole entry A829P): as the sequence (P10721 whole entry, looked up, stated change not applied) above, with A829P counted along it

[18] = molecular target: Mast/stem cell growth factor receptor Kit (Homo sapiens, UniProt P10721, Y823D); assay: Inhibition of human c-KIT A loop exon 17 Y823D single mutant using poly (Glu,Tyr) 4:1 as substrate in presence of 33P-gamma-ATP by hotspot kinase assay
Sequence of Mast/stem cell growth factor receptor Kit (Homo sapiens, UniProt P10721, Y823D) (P10721 26-976 Y823D limits assumed): as the sequence (P10721 26-976 D816H limits assumed) above, with H791D, Y798D counted along it

[19] = Half life in ICR mouse at 10 mg/kg, po administered as single dose measured up to 24 hrs by LC-MS/MS analysis; format: ADME, organism-based; conditions: in vivo
[20] = molecular target: Mast/stem cell growth factor receptor Kit (Homo sapiens, UniProt P10721, D820Y); assay: Inhibition of human c-KIT A loop exon 17 D820Y single mutant using poly (Glu,Tyr) 4:1 as substrate in presence of 33P-gamma-ATP by hotspot kinase assay
Sequence of Mast/stem cell growth factor receptor Kit (Homo sapiens, UniProt P10721, D820Y) (P10721 26-976 D820Y limits assumed): as the sequence (P10721 26-976 D816H limits assumed) above, with H791D, D795Y counted along it

[21] = system: Mast/stem cell growth factor receptor Kit (Homo sapiens), P10721 [D820E]; conditions: at 10 nM
Sequence of Mast/stem cell growth factor receptor Kit (Homo sapiens), P10721 [D820E] (P10721 whole entry D820E): as the sequence (P10721 whole entry, looked up, stated change not applied) above, with D820E counted along it
Description: Inhibition of human c-KIT A loop exon 17 D820E single mutant at 10 nM using poly (Glu,Tyr) 4:1 as substrate in presence of 33P-gamma-ATP by hotspot kinase assay relative to control

GIST430 [22] = assay: Antiproliferative activity against human GIST430 cells harboring c-KIT exon 11 primary in-frame V560-L576 deletion mutant and exon 13 heterozygous secondary missense V654A mutant assessed as reduction in cell viability by methylene blue staining based assay; format: functional
[23] = molecular target: Mast/stem cell growth factor receptor Kit (Homo sapiens, UniProt P10721); assay: Inhibition of unactivated recombinant human N-terminal 6x-His-tagged c-KIT (547 to 935 residues)/(694 to 753 residues deletion) expressed in baculovirus infected Sf9 insect cells assessed as decrease in poly (Glu,Tyr) 4:1 phosphorylation incubated for 30 mins followed by ATP addition and measured after 120 mins by Kinase Glo based luminescence assay
[24] = system: Mast/stem cell growth factor receptor Kit (Homo sapiens), P10721 [V560G,N822K]; assay: Inhibition of human c-KIT A loop exon 11/17 V560G/N822K double mutant at 10 nM using poly (Glu,Tyr) 4:1 as substrate in presence of 33P-gamma-ATP by hotspot kinase assay relative to control

GI50 (A549): 14.6 µM
pIC50 [3]: 9.17
inhibition [4]: Active
inhibition [5]: Active
inhibition [6]: 100%
inhibition [7]: 83%
pIC50 [8]: 8.86
pIC50 [9]: 9.05
inhibition [10]: 99%
inhibition [12]: 99%
inhibition [14]: 22%
inhibition [16]: 73%
inhibition [17]: 90%
pIC50 [18]: 9.92
half-life [19]: 168 min
pIC50 [20]: 10.70
inhibition [21]: 83%
pIC50 [23]: 7.16
inhibition [24]: 94%
Structure (SMILES): CCc1cc(NC(=O)Nc2ccc(-c3cnc(Nc4cc(N5CCN(CC)CC5)ncn4)s3)cc2)no1
GI50 (GIST430 [1]): 1 nM
GI50 (GIST882 [2]): 3 nM
GI50 (GIST48): 2 nM
GI50 at 72 h [11]: > 10 µM
GI50 (GIST882 [13]): 3 nM
TGI (GIST430 [15]): Active
Activity (Mus musculus): Dose-dependent effect
GI50 (GIST430 [22]): 1 nM

— ChEMBL document CHEMBL4385613, “Discovery of Conformational Control Inhibitors Switching off the Activated c-KIT and Targeting a Broad Range of Clinically Relevant c-KIT Mutants” (J Med Chem, 2019)
